{
  "source": "patent US20230110128A1",
  "about": "“USE OF ANTIBODY DRUG CONJUGATES COMPRISING TUBULIN DISRUPTING AGENTS TO TREAT SOLID TUMOR” (Seagen Inc., priority 2018, published 2023)",
  "format_in_all_cases": "cell-based",
  "key": {"[1]": {"system": "MiaPaca-CHOP-luciferase cells", "test": "CHOP-driven luciferase reporter assay of severe ER stress", "conditions": "after 16 hours", "experimental": "Severe ER stress leads to upregulation of CHOP, and initiates mitochondrial apoptosis. MiaPaca2 pancreatic tumor cells were engineered to express a CHOP-driven luciferase reporter system (purchased from Signosis, Inc.) that allows for quantifiable monitoring of severe ER stress. MiaPaca-CHOP-luciferase cells were treated with MMAE, vincristine, and Paclitaxel, and assayed for luciferase expression after 16 hours."}, "PC-3 cells": {"system": "PC-3 cells", "test": "Western blot analysis of ER stress in PC-3 cells", "conditions": "24 hours", "experimental": "PC-3 prostate tumor cells were also treated with MMAE, Vincristine, or Paclitaxel. Supernatant was collected after 16 hours of treatment, and analyzed for ATP secretion. […] PC-3 cells were treated for 24 hours with an MMAE-containing ADC (SGN-LIV1A) or MMAE and harvested in RIPA buffer for western blot analysis (FIG. 3C)."}, "MCF7 cells [2]": {"system": "MCF7 cells", "test": "ATP secretion from MCF7 cells"}, "MCF7 cells [3]": {"system": "MCF7 cells", "test": "HMGB1 release from MCF7 cells", "experimental": "(§1) Induction of ICD is also characterized by the secretion of ATP and HMGB1. Extracellular ATP serves as a strong chemotactic signal, promoting immune cell migration to the tumor site. Upon arrival, extracellular HMGB1 signals through various pro-inflammatory receptors (TLR2, TLR4, RAGE) to activate antigen-presenting cells, thereby promoting immune activity within the tumor.\nas §1, with “MCF7 cells were treated with MMAE or an MMAE-containing ADC (SGN-LIV1A) for 16 hours and harvested in […] for western bot analysis. […] Induction” for “Induction”"}, "T-24 (bladder) cells": {"system": "T-24 (bladder) cells", "test": "ATP secretion from T-24 cells", "conditions": "48 hours", "experimental": "(§2) T-24 (bladder) cells were treated with MMAE or an MMAE-containing ADC (ASG-22ME) for 48 hours and analyzed for ATP secretion. […] T-24 cells were also treated with MMAE, an MMAE-containing ADC (ASG22ME, Enfortumab vedotin), vincristine, and Paclitaxel for 24 hours. Cells were washed and harvested, and subsequently co-cultured with the enriched macrophages as above. Macrophages were harvested 4 days after co-culture and assayed for immune activation by flow cytometry. Level of antigen-presentation (as measured by frequency of MHCII-expressing macrophages) was quantified and normalized to macrophages that were co-cultured with untreated tumor cells. […] Supernatant from the co-culture of macrophages and dying T-24 tumor cells was harvested after 24 hours and assayed for levels of cytokine and chemokine production by ELISA and normalized to macrophages that were co-cultured with untreated tumor cells."}, "BxPC-3 cells": {"system": "BxPC-3 cells", "test": "ATP secretion from BxPC-3 cells", "conditions": "17 hours"}, "[4]": {"system": "T-24 tumor cells co-cultured with macrophages", "test": "Cytokine and chemokine production in macrophage co-culture with treated T-24 cells", "conditions": "T-24 co-culture supernatant after 24 hours, ELISA, normalized to untreated", "experimental": "as §2"}, "U-266 cells": {"system": "U-266 cells", "test": "Cell surface ICD markers (HSP70, calreticulin) on AnnexinV negative U-266 cells", "conditions": "48 hours, MMAE 492 nM, SGN-CD48A 10 ng/ml", "experimental": "U-266 cells were treated for 48 hours with free MMAE (492 nM), an MMAE-containing ADC (SGN-CD48A, 10 ng/ml), and a non-binding MMAE-ADC (10 ng/ml) for 48 hours. Cells were harvested, washed in flow buffer, and subsequently stained for both AnnexinV, a marker for apoptosis, and HSP70. Cells were also stained with both AnnexinV and calreticulin. In both conditions, cells that were AnnexinV negative were selected and the percent population that was positive for HSP70 or calreticulin were determined."}, "[5]": {"system": "Hep3b, Huh7, and JHH7 cells co-cultured with macrophages", "test": "Cytokine and chemokine production in macrophage co-culture with treated liver tumor cells", "conditions": "Huh7, JHH7 co-culture supernatant 24 hours, ELISA, normalized to untreated", "experimental": "(§3) Liver tumor lines Hep3b, Huh7, and JHH7 cells were treated with MMAE, Tubulysin M, vincristine, and Paclitaxel for 24 hours and analyzed for ATP secretion. […] Cells were washed and harvested, and subsequently co-cultured with enriched macrophages prepared as above. Macrophages were harvested 4 days after co-culture and assayed for immune activation by flow cytometry. Levels of costimulation (as measured by CD86 expression, JHH7) and antigen-presentation (as measured by frequency of MHCII-expressing cells, Hep3b, Huh7, and JHH7) were quantified and normalized to macrophages that were co-cultured with […]. […] Supernatant from the co-culture of macrophages and dying liver tumor cells was harvested 24 hours later and assayed for levels of cytokine and chemokine production by ELISA and normalized to macrophages that were co-cultured with untreated tumor cells."}, "MiaPaca2 cells": {"system": "MiaPaca2 cells", "test": "ATP secretion from MiaPaca2 cells", "conditions": "supernatant after 16 hours", "experimental": "MiaPaca2 cells were treated with MMAE, Vincristine, or Paclitaxel. Supernatant was collected after 16 hours of treatment, and analyzed for ATP secretion."}, "[6]": {"system": "Hep3b, Huh7, and JHH7 cells co-cultured with macrophages", "test": "Macrophage costimulation/antigen presentation after co-culture with treated liver tumor cells", "conditions": "macrophages harvested 4 days after co-culture; normalized to Paclitaxel-treated tumor cells", "experimental": "as §3"}, "MDA-MB-468 cells": {"system": "MDA-MB-468 cells", "test": "ATP secretion from MDA-MB-468 cells", "conditions": "supernatant after 48 hours", "experimental": "MDA-MB-468 cells were treated with MMAE or an MMAE-containing ADC (ASG-22ME). Supernatant was collected after 48 hours of treatment, and analyzed for ATP secretion."}, "[7]": {"system": "BxPC3 and HPAFII tumor cells co-cultured with macrophages", "test": "Cytokine and chemokine production in macrophage co-culture with treated BxPC3 and HPAFII cells", "conditions": "BxPC3 and HPAFII co-culture supernatant 24 hours, ELISA, normalized to untreated", "experimental": "Supernatant from the co-culture of macrophages and dying tumor cells was harvested 24 hours later and assayed for levels of cytokine and chemokine production by ELISA and normalized to macrophages that were co-cultured with untreated tumor cells."}, "[8]": {"system": "A2058, SK-MEL-5, SK-MEL-28 (skin) cell lines", "test": "ATP secretion in skin cell lines", "conditions": "A2058, SK-MEL-5, SK-MEL-28, after 17 hours", "experimental": "Skin tumor lines A2058, SK-MEL-5 and SK-MEL-28, Calu-1 (lung), HT-1080 (fibrosarcoma), SK-MES-1 (lung), and BXPC3 (pancreas) cells were treated with MMAE, vincristine, and Paclitaxel. Supernatant was collected after 17 hours of treatment, and analyzed for ATP secretion."}},
  "note": "Entries after “also recorded” stand apart in the source; their conditions may differ. Non-standard residues stand in square brackets, D forms with d. Residues, ends and D or L forms follow the SMILES beside them. *: point of attachment. Dolaproine = CO[C@@H]([C@@H]1CCCN1)[C@@H](C)C(=O)O; Dil = CC[C@H](C)[C@H](NC)[C@@H](CC(=O)O)OC; X1 = C[C@@H](N*)[C@@H](O)c1ccccc1; NMeV = CN[C@H](C(=O)O)C(C)C",
  "data": [
    {"smiles": "CC[C@H](C)[C@@H]([C@@H](CC(=O)N1CCC[C@H]1[C@H](OC)[C@@H](C)C(=O)N[C@H](C)[C@@H](O)c1ccccc1)OC)N(C)C(=O)[C@@H](NC(=O)[C@@H](NC)C(C)C)C(C)C", "note": "[MMAE, monomethyl auristatin E] (H-[NMeV]V[Dil][Dolaproine]-X1)", "values": [
      {"measurement": "Luciferase signal as a proxy of severe ER stress induction", "setting": "[1]", "value": "dose-dependent increase in luciferase signal"},
      {"measurement": "ER stress (phosphorylation of IRE1 and JNK)", "setting": "PC-3 cells", "value": "elicits ER stress (phosphorylation of IRE1 and JNK); also recorded: elicits ER stress (phosphorylation of IRE1 and INK)"},
      {"measurement": "Secretion of ATP", "setting": "MCF7 cells [2]", "value": "increased secretion"},
      {"measurement": "Secretion of HMGB1", "setting": "MCF7 cells [3]", "value": "increased secretion"},
      {"measurement": "ATP secretion", "setting": "T-24 (bladder) cells", "value": "potent ATP secretion"},
      {"measurement": "ATP secretion", "setting": "BxPC-3 cells", "value": "equivalent levels of ATP secretion"},
      {"measurement": "Cytokine and chemokine production", "setting": "[4]", "value": "increase of the indicated cytokines and chemokines that was more robust than treatment with Paclitaxel"},
      {"measurement": "Percentage of ICD markers (HSP70, calreticulin) on the cell surface of AnnexinV negative cells", "setting": "U-266 cells", "value": "increase in the percentage of ICD markers"},
      {"measurement": "Cytokine and chemokine production", "setting": "[5]", "value": "increase of the indicated cytokines and chemokines that was more robust than treatment with Paclitaxel"},
      {"measurement": "ATP secretion", "setting": "MiaPaca2 cells", "value": "robust ATP secretion"},
      {"measurement": "Immune-activation (CD86 expression, JHH7; MHCII-expressing cells, Hep3b, Huh7, JHH7)", "setting": "[6]", "value": "increase in immune-activation in 3/3 tumor cell lines that was more robust than Paclitaxel"},
      {"measurement": "ATP secretion", "setting": "MDA-MB-468 cells", "value": "robust ATP secretion that was comparable to thapsigargin"},
      {"measurement": "Cytokine and chemokine production", "setting": "[7]", "value": "increase of the indicated cytokines and chemokines that was more robust than treatment with Paclitaxel"},
      {"measurement": "ATP secretion (skin cell lines responding)", "setting": "[8]", "value": "potent ATP secretion from all 3"}
    ]}
  ]
}
